Reference: US20030134865A1, “Modulation of histone deacetylase” (priority 2003, published 2003)

What was measured:
[1] = tested on: HDAC1; test: HDAC1 expression in bronchial biopsies of treated asthmatics (Western blot); format: in vivo, human; details: placebo 0.28±0.09, p<0.05
From the text: (§1) FIG. 16. Effect of theophylline on HDAC expression and activity in vivo. (a) Western blot analysis of HDAC1 and HDAC 2 expression in bronchial biopsies from mild asthmatic subjects treated with low dose theophylline (LDT) or placebo. (b) Graphical expression of the effect of LDT and placebo on HDAC1 and HDAC2 expression relative to β-actin. (c) Effect of LDT and P on HDAC activity in bronchial biopsies. N=14.
(§2) Western blotting: Immunoprecipitates, whole cell extractions or isolated histones were measured by SDS-PAGE and Western blot analysis using ECL (Amersham, Amersham, UK). Proteins were size-fractionated by SDS-PAGE and transferred to Hybond-ECL membranes. Specific protein bands were detected by ECL according to the manufacturer's instructions.

[2] = tested on: histone acetyltransferase (HAT) activity, A549 cells
Description: (a) Cells were stimulated with LPS (3 ng/ml) for 24 hours in the presence or absence of theophylline (10^−5 M) or Dex (10^−6 M). Total cellular proteins were extracted and histone acetylase activity measured. (b) GM-CSF release into the culture medium was measured after 6 hours by ELISA.
After incubation for 10 min at 37° C. cells were stimulated for 6 hr. Histones were isolated and separated by electrophoresis on SDS-16% polyacrylamide gel. Gels were stained with Coommasie brilliant blue and the core histones (H2A, H2B, H3 and H4) excised. The radioactivity in extracted core histones was determined by liquid scintillation counting and normalised to protein level.

[3] = tested on: IL-8 release, alveolar macrophages; test: LPS-induced IL-8 release from alveolar macrophages; format: cell-based, human; details: macrophages from non-smokers
[4] = tested on: GM-CSF release, A549 cells; test: GM-CSF release from A549 cells (ELISA)
Description: Determination of GM-CSF expression was measured by sandwich ELISA (Pharmingen, Lugano, Switzerland) according to the manufacturer's instructions.
GM-CSF ELISA: Determination of GM-CSF expression was measured by sandwich ELISA (Pharmingen, Lugano, Switzerland) according to the manufacturer's instructions.

[5] = tested on: HDAC1; test: HDAC1 expression in A549 cells (Western blot); format: cell-based
Description: (§3) FIG. 12. Effect of theophylline on HDAC expression. […]. Band densities were controlled for protein loading by comparison with β-actin expression. Results are shown as relative band densities.
as §2

[6] = tested on: HDAC activity, BAL macrophages; test: HDAC activity in BAL macrophages; format: cell-based, human; details: 24 hours
[7] = tested on: HDAC2; test: HDAC2 expression in A549 cells (Western blot); format: cell-based; details: for HDAC2 expression: A549 cells
From the text: […]. Proteins were extracted and size fractionated by SDS-PAGE and HDAC2 detected by Western blotting. Densitometric analysis of HDAC2 expression is shown graphically in the lower panel. Data from 3 separate experiments was normalised to β-actin and results expressed as mean±SEM. *p<0.05.
as §3
Immunoprecipitates, whole cell extractions or isolated histones were measured by SDS-PAGE and Western blot analysis using ECL (Amersham, Amersham, UK). Proteins were size-fractionated by SDS-PAGE and transferred to Hybond-ECL membranes. Immunoreactive bands were detected by ECL.
as §2

[8] = Double-blind cross-over study of low dose theophylline in mild stable asthmatic subjects; details: 5 weeks low dose theophylline
From the text: Patients: Fifteen mild stable asthmatic subjects (Table 1) receiving treatment with only the inhaled β2-adrenergic agonist aerosol, albuterol, for intermittent relief of wheeze were recruited. […] All patients were atopic as defined by two or more positive skin prick tests to common allergens. […] Current smokers or ex-smokers of more than five pack years and patients with FEV1 less than 80% predicted were excluded.
Fibreoptic bronchoscopy and isolation of BAL macrophages: Subjects attended our bronchoscopy suite at 8.30 am after having fasted from midnight and were pretreated with atropine (0.6 mg iv) and midazolam (5-10 mg iv). Oxygen (31/min) was administered via nasal prongs throughout the procedure and oxygen saturation was monitored with a digital oximeter. Using local anaesthesia with lidocaine (4%) to the upper airways and larynx, a fibreoptic bronchoscope (Olympus BF10) was passed through the nasal passages into the trachea. Bronchoalveolar lavage (BAL) was performed from the right middle lobe using warmed 0.9% NaCl with 4 successive aliquots of 60 mls of 0.9% NaCl. […] Cytospins were prepared and stained with May-Grunwald stain for differential cell counts. Cell viability was assessed using trypan blue exclusion.

[9] = tested on: HDAC2; test: HDAC2 expression in bronchial biopsies of treated asthmatics (Western blot); format: in vivo, human; details: placebo 0.28±0.08, p=0.1
From the text: as §1, §2

[10] = biological target: T1, HDAC2 (Homo sapiens, UniProt Q92769); test: Immunoprecipitated HDAC2 activity; format: cell-based; details: theophylline 10^−5 M
T1 construct: endogenous in cells
From the text: (§4) FIG. 22. Effect of theophylline on HDAC1, HDAC2 and HDAC3 activity.
(§5) Using IP-HAT assays we were able to determine which HDACs were the target for theophylline action.

[11] = tested on: histone deacetylase (HDAC) activity, A549 cells; test: Histone deacetylation activity in total cellular extracts of treated A549 cells
Description: (B) Effect of Trichostatin A (TSA) on histone deacetylase activity and histone H4 acetylation. Cells were treated with increasing concentrations of TSA for 6 hrs before total cellular proteins were isolated and analysed for deacetylase activity and also histone acetylation by Western blotting using an anti-pan acetylated histone H4 antibody.
Effect of theophylline on histone deacetylase (HDAC) activity in A549 cells. (a) Cells were stimulated with LPS (3 ng/ml) for 24 hours in the presence or absence of theophylline (10^−5 M) or Dex (10^−6 M). Total cellular proteins were extracted and histone deacetylase activity measured. (b) Direct effect of theophylline on HDAC activity. […] Results are expressed as mean±SEM (n=3-5, *p<0.05, **p<0.01).

[12] = tested on: HDAC activity; test: Total HDAC activity in bronchial biopsies of treated asthmatics; format: in vivo, human; details: placebo 67±12, p<0.05
From the text: as §1

[13] = tested on: HDAC activity; test: Direct effect on HDAC activity of nuclear proteins from untreated A549 cells; format: biochemical
Description: FIG. 13. […] (a) Direct effect of the PDE4 inhibitor rolipram (10 μM) and the adenosine receptor antagonist CGS-15943 (10 μM) on HDAC activity. […] (b) Direct effect of the MEK inhibitor PD089159 (1 μM) and the p38 MAPK inhibitor SB203580 on theophylline induced HDAC activity.

[14] = biological target: T2, HDAC1 (Homo sapiens, UniProt Q13547); test: Immunoprecipitated HDAC1 activity; format: cell-based; details: theophylline 10^−5 M
T2 construct: endogenous in cells
From the text: as §4, §5

[15] = biological target: T3, HDAC3 (Homo sapiens, UniProt O15379); test: Immunoprecipitated HDAC3 activity; format: cell-based; details: theophylline 10^−5 M
T3 construct: endogenous in cells
From the text: as §4, §5

[16] = tested on: HDAC activity, alveolar macrophages; test: HDAC activity in alveolar macrophages from non-smokers or smokers; details: theophylline 10^−5 M, dexamethasone 10^−10 M
[17] = theophylline 10^−5 M, dexamethasone 10^−10 M

T2 sequence (Q13547 whole entry): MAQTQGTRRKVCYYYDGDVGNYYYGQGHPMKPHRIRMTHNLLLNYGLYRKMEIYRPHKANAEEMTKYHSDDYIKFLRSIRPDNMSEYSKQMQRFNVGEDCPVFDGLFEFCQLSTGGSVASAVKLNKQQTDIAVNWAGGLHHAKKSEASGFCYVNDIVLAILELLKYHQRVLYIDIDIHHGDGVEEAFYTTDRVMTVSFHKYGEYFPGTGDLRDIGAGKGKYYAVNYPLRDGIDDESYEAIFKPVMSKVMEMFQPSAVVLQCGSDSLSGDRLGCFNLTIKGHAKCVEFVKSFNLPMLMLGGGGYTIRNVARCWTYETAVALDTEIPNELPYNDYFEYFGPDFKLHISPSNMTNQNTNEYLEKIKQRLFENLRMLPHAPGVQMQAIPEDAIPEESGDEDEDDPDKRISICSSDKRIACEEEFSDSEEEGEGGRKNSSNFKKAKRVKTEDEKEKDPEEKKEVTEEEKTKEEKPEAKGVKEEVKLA
T1 sequence (Q92769 whole entry): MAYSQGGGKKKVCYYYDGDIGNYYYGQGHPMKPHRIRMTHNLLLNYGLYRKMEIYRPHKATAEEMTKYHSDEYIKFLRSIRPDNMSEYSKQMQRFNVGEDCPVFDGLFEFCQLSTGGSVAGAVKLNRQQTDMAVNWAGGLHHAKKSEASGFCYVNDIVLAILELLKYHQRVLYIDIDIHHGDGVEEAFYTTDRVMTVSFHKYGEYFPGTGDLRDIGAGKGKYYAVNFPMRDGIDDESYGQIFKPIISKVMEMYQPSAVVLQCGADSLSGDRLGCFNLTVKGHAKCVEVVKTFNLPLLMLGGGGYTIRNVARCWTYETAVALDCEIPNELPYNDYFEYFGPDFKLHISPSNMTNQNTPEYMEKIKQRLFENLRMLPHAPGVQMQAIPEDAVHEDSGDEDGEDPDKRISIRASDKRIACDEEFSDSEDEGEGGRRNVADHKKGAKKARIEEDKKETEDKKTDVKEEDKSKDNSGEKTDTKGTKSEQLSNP
T3 sequence (O15379 whole entry): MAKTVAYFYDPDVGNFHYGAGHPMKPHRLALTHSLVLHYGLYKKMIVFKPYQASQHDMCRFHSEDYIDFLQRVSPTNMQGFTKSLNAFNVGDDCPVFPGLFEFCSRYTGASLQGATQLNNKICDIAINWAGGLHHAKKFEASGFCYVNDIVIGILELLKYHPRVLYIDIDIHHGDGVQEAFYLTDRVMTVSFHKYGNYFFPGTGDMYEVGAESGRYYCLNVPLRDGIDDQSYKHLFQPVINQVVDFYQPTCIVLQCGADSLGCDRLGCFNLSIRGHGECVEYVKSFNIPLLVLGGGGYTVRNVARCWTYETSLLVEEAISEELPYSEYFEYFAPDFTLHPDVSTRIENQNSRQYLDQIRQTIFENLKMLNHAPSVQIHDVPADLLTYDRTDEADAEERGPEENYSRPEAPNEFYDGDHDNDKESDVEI
T3 sequence (Q9Y618 whole entry partner): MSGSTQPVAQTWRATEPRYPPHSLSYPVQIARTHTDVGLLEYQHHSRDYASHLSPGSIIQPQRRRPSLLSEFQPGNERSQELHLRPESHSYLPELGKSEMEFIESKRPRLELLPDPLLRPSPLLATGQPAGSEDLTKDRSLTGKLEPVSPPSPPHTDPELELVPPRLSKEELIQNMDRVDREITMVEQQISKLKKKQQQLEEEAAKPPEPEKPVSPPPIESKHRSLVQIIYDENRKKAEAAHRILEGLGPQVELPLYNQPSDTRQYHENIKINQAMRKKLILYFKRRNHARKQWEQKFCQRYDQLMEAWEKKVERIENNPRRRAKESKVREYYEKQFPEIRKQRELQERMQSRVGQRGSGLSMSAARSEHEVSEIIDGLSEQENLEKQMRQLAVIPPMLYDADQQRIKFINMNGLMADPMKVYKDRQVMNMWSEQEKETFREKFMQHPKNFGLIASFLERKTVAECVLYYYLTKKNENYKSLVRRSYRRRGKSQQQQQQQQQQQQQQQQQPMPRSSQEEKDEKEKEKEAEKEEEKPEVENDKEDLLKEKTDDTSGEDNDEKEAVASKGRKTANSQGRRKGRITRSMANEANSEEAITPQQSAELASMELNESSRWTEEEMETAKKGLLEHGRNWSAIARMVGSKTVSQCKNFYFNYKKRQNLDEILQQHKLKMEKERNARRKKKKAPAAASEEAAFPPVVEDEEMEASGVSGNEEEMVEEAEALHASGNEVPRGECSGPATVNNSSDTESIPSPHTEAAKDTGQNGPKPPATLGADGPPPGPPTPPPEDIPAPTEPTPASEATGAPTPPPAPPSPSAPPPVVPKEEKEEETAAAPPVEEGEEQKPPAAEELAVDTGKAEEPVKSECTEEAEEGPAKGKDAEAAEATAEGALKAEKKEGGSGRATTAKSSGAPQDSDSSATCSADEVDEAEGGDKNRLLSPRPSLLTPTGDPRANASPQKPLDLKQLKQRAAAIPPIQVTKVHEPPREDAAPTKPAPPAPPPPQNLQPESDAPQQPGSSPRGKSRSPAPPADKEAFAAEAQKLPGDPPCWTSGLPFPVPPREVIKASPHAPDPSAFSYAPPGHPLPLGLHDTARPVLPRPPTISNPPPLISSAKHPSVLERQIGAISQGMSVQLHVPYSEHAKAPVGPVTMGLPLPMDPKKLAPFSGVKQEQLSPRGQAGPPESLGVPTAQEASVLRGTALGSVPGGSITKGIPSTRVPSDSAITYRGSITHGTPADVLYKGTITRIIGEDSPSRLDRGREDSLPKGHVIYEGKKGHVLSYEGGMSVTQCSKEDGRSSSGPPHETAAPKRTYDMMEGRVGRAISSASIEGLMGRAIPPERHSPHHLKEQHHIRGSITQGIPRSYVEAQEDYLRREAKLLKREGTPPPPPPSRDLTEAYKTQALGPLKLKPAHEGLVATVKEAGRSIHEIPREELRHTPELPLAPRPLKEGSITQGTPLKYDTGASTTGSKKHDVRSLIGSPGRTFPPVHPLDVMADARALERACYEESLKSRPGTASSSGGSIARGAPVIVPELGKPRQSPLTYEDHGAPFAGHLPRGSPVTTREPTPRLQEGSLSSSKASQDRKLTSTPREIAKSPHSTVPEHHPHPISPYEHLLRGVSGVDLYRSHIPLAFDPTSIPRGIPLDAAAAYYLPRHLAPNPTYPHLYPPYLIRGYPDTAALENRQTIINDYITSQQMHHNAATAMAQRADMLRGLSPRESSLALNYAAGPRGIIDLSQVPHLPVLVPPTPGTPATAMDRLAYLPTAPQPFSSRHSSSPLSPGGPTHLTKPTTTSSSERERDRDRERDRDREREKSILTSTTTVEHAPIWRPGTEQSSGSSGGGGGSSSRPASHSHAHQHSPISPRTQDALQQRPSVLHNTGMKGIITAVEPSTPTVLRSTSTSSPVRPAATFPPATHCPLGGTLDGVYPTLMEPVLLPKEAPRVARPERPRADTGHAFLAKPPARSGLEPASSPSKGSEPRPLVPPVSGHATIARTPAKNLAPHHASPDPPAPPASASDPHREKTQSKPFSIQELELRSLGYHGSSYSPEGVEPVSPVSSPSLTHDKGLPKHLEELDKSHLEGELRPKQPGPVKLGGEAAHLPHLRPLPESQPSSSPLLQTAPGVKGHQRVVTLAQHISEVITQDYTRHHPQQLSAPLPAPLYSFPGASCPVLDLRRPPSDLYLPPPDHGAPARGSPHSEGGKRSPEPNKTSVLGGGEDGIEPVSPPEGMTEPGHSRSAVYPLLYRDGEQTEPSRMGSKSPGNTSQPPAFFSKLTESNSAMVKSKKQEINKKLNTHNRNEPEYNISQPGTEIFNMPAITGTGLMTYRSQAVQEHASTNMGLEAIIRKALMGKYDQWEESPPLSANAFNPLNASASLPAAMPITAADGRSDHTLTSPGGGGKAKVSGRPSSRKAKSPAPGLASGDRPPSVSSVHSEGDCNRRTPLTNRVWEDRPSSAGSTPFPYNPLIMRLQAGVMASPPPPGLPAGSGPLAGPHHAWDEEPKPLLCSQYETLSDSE

Structure (SMILES): Cn1c(=O)c2[nH]cnc2n(C)c1=O [theophylline]
- HDAC1 expression relative to β-actin [1]: 0.44±0.06
- basal HAT activity [2]: Neither theophylline nor dexamethasone had any effect
- LPS-induced whole cell HAT activity ([2]; LPS 3 ng/ml, 24 hrs): significant concentration-dependent inhibitory effect
- LPS-induced IL-8 release [3]: no effect
- LPS-induced GM-CSF release ([4]; LPS 3 ng/ml): not associated with a significant reduction
- GM-CSF release after IL-1β plus H2O2, each alone [4, 17]: neither theophylline (10^−5 M) nor dexamethasone (10^−10 M) alone had any effect
- IL-1β-stimulated GM-CSF release, each alone [4, 17]: failed to inhibited
- decrease in IL-1β-stimulated GM-CSF release ([4]; theophylline 10^−5 M, dexamethasone 10^−10 M, alone or combined): 20%
- HDAC1 expression ([5]; 24 hours, theophylline 10^−4 M): induced
- HDAC1 expression ([5]; 24 hrs): no effect
- HDAC activity at 10^−4 M [6]: decreased to control levels
- concentration of maximal increase in HDAC activity [6]: 10^−5 M
- HDAC activity ([6]; rolipram 10 μM): concentration-dependent increase
- IL-1β+H2O2-induced reduction in HDAC2 expression ([7]; 24 hrs): restored
- HDAC2 expression ([7]; 24 hrs): no effect
- HDAC2 expression ([7]; 24 hours): no effect
- BAL eosinophils [8]: 1.7±0.28%
- FEV1 [8]: 3.4±0.09
- FEV1 (% predicted) [8]: 92.8 ± 2.6%
- Muscosal eosinophils [8]: 1.19 ± 0.43
- NO [8]: 23.2 ± 3.8
- PC20 methacholine [8]: 1.2±0.35
- PEF am [8]: 469±19
- mucosal eosinophils [8]: 1.19±0.43 eosinophils/high powered field
- BAL eosinophils ([8]; listed as Theophylline): 1.7 ± 0.28%
- FEV1 ([8]; listed as Theophylline): 3.42 ± 0.09
- PC20 methacholine ([8]; listed as Theophylline): 1.2 ± 0.35
- PEF am ([8]; listed as Theophylline): 469 ± 19
- HDAC2 expression relative to β-actin [9]: 0.49±0.20
- HDAC2 activity [10]: without having any effect
- total cell HDAC activity after IL-1β plus H2O2 ([11]; 4 hrs, theophylline pre-treatment 10^−5 M, 10 min): significantly increased
- total cell HDAC activity in LPS-stimulated cells ([11]; pretreatment 60 min, up to 10^−5 M, measured at 24 hrs): significantly increased
- total HDAC activity in biopsies [12]: 111±15 dpm/mg protein
- direct effect on HDAC activity at higher concentrations ([13]; 10^−4-10^−3 M): inhibited HDAC activity
- concentration of maximum increase in HDAC activity (direct) ([13]; nuclear extracts): 10^−5 M
- direct effect on HDAC activity ([13]; nuclear extracts, IBMX 500 μM, rolipram 10 μM, CGS-15943 10 μM): concentration-dependent increase
- HDAC1 activity [14]: significant induction
- HDAC3 activity [15]: significant induction
- HDAC activity, macrophages from non-smokers [16]: significantly enhanced
